According to US7511041B2, “Fused azole-pyrimidine derivatives” (Bayer Pharmaceuticals Corporation, priority 2002, dated 2009):
pIC50: −log10 of the molar value. Like-named read-outs stand apart in the source and are kept apart here.

Tests used:
[1] = target: T1, Recombinant human PI3Kγ (full length human PI3K p110γ) (Homo sapiens, UniProt P48736); assay: Kinase assay of PI3Kγ (solid-phase lipid kinase assay); format: biochemical
T1 construct: full length human PI3K p110γ fused with a His6-tag at the C-terminus; His6 (C); purchased ALEXIS BIOCHEMICALS #201-055-C010; host or cells: S. frugiperda 9 insect cells
T1 sequence (P48736 whole entry, the tested form may be a part): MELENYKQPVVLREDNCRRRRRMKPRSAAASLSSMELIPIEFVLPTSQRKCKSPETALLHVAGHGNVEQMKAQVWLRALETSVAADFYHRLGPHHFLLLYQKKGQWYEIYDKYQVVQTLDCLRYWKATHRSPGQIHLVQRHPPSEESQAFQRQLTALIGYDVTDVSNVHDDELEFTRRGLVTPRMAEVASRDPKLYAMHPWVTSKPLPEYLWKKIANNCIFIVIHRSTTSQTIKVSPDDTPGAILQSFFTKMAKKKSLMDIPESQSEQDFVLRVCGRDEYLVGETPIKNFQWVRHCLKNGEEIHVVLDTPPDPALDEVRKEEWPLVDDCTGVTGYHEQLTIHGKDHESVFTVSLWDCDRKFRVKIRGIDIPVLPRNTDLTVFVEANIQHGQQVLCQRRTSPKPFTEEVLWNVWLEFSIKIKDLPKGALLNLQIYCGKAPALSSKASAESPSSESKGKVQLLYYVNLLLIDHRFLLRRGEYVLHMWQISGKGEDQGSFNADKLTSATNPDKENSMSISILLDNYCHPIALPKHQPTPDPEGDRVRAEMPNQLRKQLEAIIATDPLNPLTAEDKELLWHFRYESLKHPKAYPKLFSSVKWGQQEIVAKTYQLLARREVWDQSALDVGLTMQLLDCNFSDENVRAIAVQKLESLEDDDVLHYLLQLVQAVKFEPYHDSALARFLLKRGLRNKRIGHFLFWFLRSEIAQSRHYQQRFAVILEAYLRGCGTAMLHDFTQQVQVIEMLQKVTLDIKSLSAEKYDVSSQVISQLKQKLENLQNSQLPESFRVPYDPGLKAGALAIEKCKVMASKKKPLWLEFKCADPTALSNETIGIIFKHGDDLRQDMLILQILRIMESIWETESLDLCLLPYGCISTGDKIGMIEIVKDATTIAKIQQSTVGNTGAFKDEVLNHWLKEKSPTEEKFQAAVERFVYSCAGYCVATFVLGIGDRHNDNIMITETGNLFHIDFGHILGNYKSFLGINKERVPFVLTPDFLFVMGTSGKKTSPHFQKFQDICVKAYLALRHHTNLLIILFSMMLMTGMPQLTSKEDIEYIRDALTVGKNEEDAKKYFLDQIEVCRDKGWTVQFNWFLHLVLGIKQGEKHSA
Text: [Determination of IC50 Values of Compounds in Kinase Assay of PI3Kγ]
Chemicals and Assay Materials
LABORATORIES (Toronto, Canada). Recombinant human PI3Kγ (full length human PI3K p110γ fused with a His6-tag at the C-terminus expressed in S. frugiperda 9 insect cells) was obtained from ALEXIS BIOCHEMICALS (#201-055-C010; San Diego, Calif.). […] BIOTECH (Buckinghamshire, UK) and ROCHE DIAGNOSTICS (Mannheim, Germany), respectively. Scintillation cocktails and MicroScint PS™ were purchased from PACKARD (Meriden, Conn.). Maxisorp™ plates were purchased from NALGE NUNC INTERNATIONAL K.K. (Tokyo, Japan). All other chemicals not further specified were from WAKO PURE CHEMICALS (Osaka, Japan).
Solid-Phase Lipid Kinase Assay
The plates were subsequently air-dried by incubation for at least 2 hours in a fume hood. The reaction was set up by mixing 25 μl/well of assay buffer 2× (100 mM MOPSO/NaOH, 0.2 M NaCl, pH 7.0, 8 mM MgCl2, 2 mg/ml BSA (fatty acid-free)) and 50 ng/well PI3Kγ in the lipid pre-coated plate and 10× test compounds were added in 2% DMSO. The reaction was started by adding 20 μl/well of ATP mix (final 10 μM ATP; 0.05 μCi/well [γ^33P]ATP). After incubation at RT for 2 hours, the reaction was terminated by adding 50 μl/well stop solution (50 mM EDTA, pH 8.0). The plate was then washed twice with Tris-buffered saline (TBS, pH 7.4). MicroScint PS™ (PACKARD) scintillation mix was added at 100 μl/well, and radioactivity was counted by using a TopCount™ (PACKARD) scintillation counter.
The inhibition percent at each concentration of compound was calculated, and IC50 values were determined from the inhibition of curve.

[2] = Table 1, isozyme not given, read-out: in vitro
[3] = in vitro PI3K-γ inhibitory activity, class symbols A-D, read-out: in vitro PI3K-gamma

COCOc1ccc2c(c1OC)N=C(/C=C(\O)c1cccnc1)N1CCN=C21 [Example 1-3, 2-[7-Methoxy-8-(methoxymethoxy)-2,3-dihydroimidazo[1,2-c]quinazolin-5-yl]-1-pyridin-3-ylethylenol]
pIC50 ([1]; activity class of IC50, read-out: In vitro PI3K-γ inhibitory activity): 6.30 to 7.00 | melting point: 215 to 216 °C

COc1c(O)ccc2c1N=C(/C=C(\O)c1cccnc1)N1CCN=C21.Cl [Example 1-9]
pIC50 [1, 2]: > 7.00 | melting point: 245 °C (dec.)

COc1ccc2c(c1OC)N=C(/C=C(\O)c1cccnc1)N1CCN=C21 [Example 1-10]
pIC50 [1, 2]: > 7.00 | melting point: 269 to 270 °C

COc1ccc2c(c1OC)N=C(/C=C(\O)c1ccc(NC(C)=O)nc1)N1CCN=C21 [Example 1-12]
pIC50 [1, 2]: > 7.00 | melting point: 270 °C (dec.)

CCOc1ccc2c(c1OC)N=C(/C=C(\O)c1cccnc1)N1CCN=C21 [Example 1-13]
pIC50 [1, 2]: > 7.00 | melting point: 267 to 268 °C

COc1c(OC(C)C)ccc2c1N=C(/C=C(\O)c1cccnc1)N1CCN=C21 [Example 1-14]
pIC50 [1, 2]: > 7.00 | melting point: 252 to 253 °C

COc1c(OCC2CC2)ccc2c1N=C(/C=C(\O)c1cccnc1)N1CCN=C21 [Example 1-15]
pIC50 [1, 2]: 6.30 to 7.00 | melting point: 254 °C (dec.)

COc1c(OCCO)ccc2c1N=C(/C=C(\O)c1cccnc1)N1CCN=C21 [Example 1-16]
pIC50 [1, 2]: > 7.00 | melting point: 264 to 265 °C

COc1c(OCC(=O)OC(C)(C)C)ccc2c1N=C(/C=C(\O)c1cccnc1)N1CCN=C21 [Example 1-18]
pIC50 [1, 2]: 6.30 to 7.00 | melting point: 184 to 186 °C

COc1c(OCCN(C)C)ccc2c1N=C(/C=C(\O)c1cccnc1)N1CCN=C21 [Example 1-19]
pIC50 [1, 2]: 6.30 to 7.00 | melting point: 183 to 184 °C

COc1c(OCCN2CCCCC2)ccc2c1N=C(/C=C(\O)c1cccnc1)N1CCN=C21 [Example 1-20]
pIC50 [1, 2]: 6.30 to 7.00 | melting point: 162 to 163 °C

COc1c(OCCN2CCCC2)ccc2c1N=C(/C=C(\O)c1cccnc1)N1CCN=C21 [Example 1-21]
pIC50 [1, 2]: > 7.00 | melting point: 204 to 205 °C

COc1c(OCC(=O)O)ccc2c1N=C(/C=C(\O)c1cccnc1)N1CCN=C21.Cl [Example 1-22]
pIC50 [1, 2]: > 7.00 | melting point: 240 °C (dec.)

COc1c(OCC(N)=O)ccc2c1N=C(/C=C(\O)c1cccnc1)N1CCN=C21 [Example 1-23]
pIC50 [1, 2]: > 7.00 | melting point: 297 to 298 °C

CNC(=O)COc1ccc2c(c1OC)N=C(/C=C(\O)c1cccnc1)N1CCN=C21.Cl [Example 1-25]
pIC50 [1, 2]: > 7.00 | melting point: 240 °C (dec.)

COc1c(OCC(=O)NC(C)C)ccc2c1N=C(/C=C(\O)c1cccnc1)N1CCN=C21.Cl [Example 1-26]
pIC50 [1, 2]: > 7.00 | melting point: 245 °C (dec.)

COc1c(OCC(=O)N(C)C)ccc2c1N=C(/C=C(\O)c1cccnc1)N1CCN=C21 [Example 1-27]
pIC50 [1, 2]: > 7.00 | melting point: 241 to 242 °C

COc1c(OCC(=O)N2CCOCC2)ccc2c1N=C(/C=C(\O)c1cccnc1)N1CCN=C21 [Example 1-29]
pIC50 [1, 2]: > 7.00 | melting point: 235 °C

COc1c(OCC(=O)NCc2ccc(F)cc2)ccc2c1N=C(/C=C(\O)c1cccnc1)N1CCN=C21.Cl [Example 1-31]
pIC50 [1, 2]: 6.30 to 7.00 | melting point: 230 to 231 °C

COc1c(C)ccc2c1N=C(/C=C(\O)c1ccc(NC(C)=O)nc1)N1CCN=C21.Cl [Example 1-33]
pIC50 [1, 2]: > 7.00 | melting point: 273 °C

COc1c(C)ccc2c1N=C(/C=C(\O)c1ccc3[nH]cnc3c1)N1CCN=C21 [Example 1-34]
pIC50 [1, 2]: > 7.00 | melting point: > 285 °C

COc1ccc2c(c1OCCN1CCOCC1)N=C(/C=C(\O)c1cccnc1)N1CCN=C21 [Example 1-36]
pIC50 [1, 2]: > 7.00 | melting point: 197 °C

COc1ccc2c(c1OCCN1CCOCC1)N=C(/C=C(\O)c1ccc(NC(C)=O)nc1)N1CCN=C21.Cl [Example 1-38]
pIC50 [1, 2]: > 7.00 | melting point: 260 °C

CCNc1ccc(/C(O)=C/C2=Nc3cc(OC)c(OC)cc3C3=NCCN23)cn1 [Example 1-53]
pIC50 [1, 2]: 6.30 to 7.00

O/C(=C\C1=Nc2cc(C(F)(F)F)ccc2C2=NCCN12)c1cccnc1 [Example 1-188]
pIC50 [1, 2]: 5.70 to 6.30

COc1cc2c(cc1OC)C1=NCCN1C(NC(=O)c1cccnc1)=N2 [Example 2-53]
pIC50 ([1]; in vitro PI3K-γ inhibitory activity, class symbols, read-out: in vitro PI3K-gamma): 6.30 to 7.00

Cl.O=C(NC1=Nc2cc(OCCO)ccc2C2=NCCN12)c1cccnc1 [Example 2-198]
melting point: 249 °C (dec.)

Cl.O=C(NC1=Nc2cc(OCCOCCO)ccc2C2=NCCN12)c1cccnc1 [Example 2-202]
melting point: 229 °C (dec.)

Cl.O=C(NC1=Nc2cc(OCC(=O)N3CCOCC3)ccc2C2=NCCN12)c1cccnc1 [Example 2-208]
melting point: 227 °C

COc1c(C)cc(C(=O)NC2=Nc3ccccc3C3=NCCN23)cc1C.Cl [Example 2-221]
melting point: 288 °C (dec.)

Cc1cc(C(=O)NC2=Nc3ccccc3C3=NCCN23)cc(C)c1[N+](=O)[O-].Cl [Example 2-223]
melting point: 313 °C (dec.)

O=C(NC1=Nc2ccccc2C2=NCCN12)c1ccc(Cl)cc1.O=C(O)C(F)(F)F [Example 2-230]
melting point: 243 to 245 °C

COc1cc(C(=O)NC2=Nc3ccccc3C3=NCCN23)cc(OC)c1C.Cl [Example 2-242]
melting point: 321 °C (dec.)

CSc1ccc(C(=O)NC2=Nc3ccccc3C3=NCCN23)cc1.Cl [Example 2-244]
melting point: 292 °C (dec.)

CS(=O)(=O)c1ccc(C(=O)NC2=Nc3ccccc3C3=NCCN23)cc1.Cl [Example 2-246]
melting point: 320 °C (dec.)

Cl.NS(=O)(=O)c1ccc(C(=O)NC2=Nc3ccccc3C3=NCCN23)cc1 [Example 2-248]
melting point: 308 °C (dec.)

Cl.NS(=O)(=O)c1ccc(C(=O)NC2=Nc3ccccc3C3=NCCN23)c(Cl)c1 [Example 2-250]
melting point: 300 °C (dec.)

O=C(NC1=Nc2ccccc2C2=NCCN12)c1cccc([N+](=O)[O-])c1.O=C(O)C(F)(F)F [Example 2-253]
melting point: 238 to 239 °C

O=C(NC1=Nc2ccccc2C2=NCCN12)c1ccc([N+](=O)[O-])cc1.O=C(O)C(F)(F)F [Example 2-255]
melting point: 265 °C (dec.)

CN(C)c1cccc(C(=O)NC2=Nc3ccccc3C3=NCCN23)c1.Cl [Example 2-259]
melting point: 266 °C (dec.)

CN(C=O)c1ccc(C(=O)NC2=Nc3ccccc3C3=NCCN23)cc1.Cl [Example 2-264]
melting point: 304 °C (dec.)

Cl.O=C(NC1=Nc2ccccc2C2=NCCN12)c1ccc(-n2cccc2)cc1 [Example 2-267]
melting point: 309 °C (dec.)

Cl.O=C(NC1=Nc2ccccc2C2=NCCN12)c1ccc(-n2ccnc2)cc1 [Example 2-269]
melting point: 324 °C (dec.)

Cl.O=C(NC1=Nc2ccccc2C2=NCCN12)c1ccc(-n2cccn2)cc1 [Example 2-271]
melting point: 319 °C (dec.)

CCOC(=O)c1cc(C(=O)NC2=Nc3ccccc3C3=NCCN23)cc(C(=O)OCC)c1.Cl [Example 2-275]
melting point: 282 °C

O=C(NC1=Nc2ccccc2C2=NCCN12)c1ccccn1.O=C(O)C(F)(F)F [Example 2-277]
melting point: 206 °C (dec.)

O=C(NC1=Nc2ccccc2C2=NCCN12)c1cnccn1.O=C(O)C(F)(F)F [Example 2-293]
melting point: 234 °C (dec.)

Cc1cnc(C(=O)NC2=Nc3ccccc3C3=NCCN23)cn1.O=C(O)C(F)(F)F [Example 2-295]
melting point: 231 °C (dec.)

Cl.Cn1cccc1C(=O)NC1=Nc2ccccc2C2=NCCN12 [Example 2-297]
melting point: 264 °C (dec.)

Cl.O=C(NC1=Nc2ccccc2C2=NCCN12)c1ccc([N+](=O)[O-])s1 [Example 2-304]
melting point: 300 °C (dec.)

Cl.O=C(NC1=Nc2ccccc2C2=NCCN12)c1csc([N+](=O)[O-])c1 [Example 2-306]
melting point: 296 °C (dec.)

Cl.O=C(NC1=Nc2ccccc2C2=NCCN12)c1csc(-c2cccnc2)n1 [Example 2-320]
melting point: 310 °C (dec.)

Cl.O=C(NC1=Nc2ccccc2C2=NCCN12)c1csc(-c2ccncc2)n1 [Example 2-322]
melting point: 335 °C (dec.)

CCC(=O)NC1=Nc2ccccc2C2=NCCN12 [Example 2-327]
pIC50 [1, 3]: < 5.70

CC(C)(C)OC(=O)N1CCCCC1C(=O)NC1=Nc2ccccc2C2=NCCN12 (centres unmarked) [Example 2-336]
pIC50 [1, 3]: < 5.70

CC(C)(C)OC(=O)N1CCC(C(=O)NC2=Nc3ccccc3C3=NCCN23)CC1 [Example 2-340]
pIC50 [1, 3]: < 5.70

COc1cc2c(cc1OC)C1=NCCN1C(NC(=O)c1ccccc1)=N2 [Example 2-342]
pIC50 [1, 3]: 5.70 to 6.30
